Assay results published in PubChem BioAssay AID248 (DTP/NCI, 2004).
Several values for one entry are separate records, joined by “and”; a condition that tells them apart may be missing. Identical values can stand only once. Toxic doses and inconclusive results are not listed. Rule as the data show it: active = T/C of 150% or more; inactive = T/C below 125%.

Tested on: L1210 leukemia ip in BDF1 mice, survival T/C
Test: NCI In Vivo Anticancer Drug Screen. Data for tumor model L1210 Leukemia (intraperitoneal) in B6D2F1 (BDF1) mice
Conditions: higher = longer survival
How it was run: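 Ratio derived from survival: compound-dosed mice over vehicle-dosed mice, all bearing a transplantable tumor.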

[1] = endpoint: mean survival time, dose: 25.0 mg/kg/injection, schedule: Q01DX009 (ip), vehicle: saline
[2] = endpoint: mean survival time, dose: 50.0 mg/kg/injection, schedule: Q01DX009 (ip), vehicle: saline
[3] = endpoint: mean survival time, dose: 100.0 mg/kg/injection, schedule: Q01DX009 (ip), vehicle: saline
[4] = endpoint: mean survival time, dose: 100.0 mg/kg/injection, schedule: Q01DX009 (ip), vehicle: Klucel (hydroxypropylcellulose) (HPC)
[5] = endpoint: mean survival time, dose: 100.0 mg/kg/injection, schedule: Q04DX003 (ip), vehicle: Klucel (hydroxypropylcellulose) (HPC)
[6] = endpoint: mean survival time, dose: 200.0 mg/kg/injection, schedule: Q01DX009 (ip), vehicle: Klucel (hydroxypropylcellulose) (HPC)
[7] = endpoint: mean survival time, dose: 200.0 mg/kg/injection, schedule: Q04DX003 (ip), vehicle: Klucel (hydroxypropylcellulose) (HPC)
[8] = endpoint: mean survival time, dose: 400.0 mg/kg/injection, schedule: Q01DX009 (ip), vehicle: Klucel (hydroxypropylcellulose) (HPC)
[9] = endpoint: mean survival time, dose: 400.0 mg/kg/injection, schedule: Q04DX003 (ip), vehicle: Klucel (hydroxypropylcellulose) (HPC)
[10] = endpoint: mean survival time, dose: 100.0 mg/kg/injection, schedule: Q04DX002 (ip), vehicle: saline with Tween-80
[11] = endpoint: mean survival time, dose: 200.0 mg/kg/injection, schedule: Q04DX002 (ip), vehicle: saline with Tween-80

Measured: T/C

NC(=O)N/N=C(\CF)C(=O)O
inactive: endpoint: mean survival time, dose: 6.0 mg/kg/injection, schedule: Q01DX009 (ip), vehicle: Klucel (hydroxypropylcellulose) (HPC) 98 % of control | endpoint: mean survival time, dose: 12.0 mg/kg/injection, schedule: Q01DX009 (ip), vehicle: Klucel (hydroxypropylcellulose) (HPC) 110 % of control | endpoint: mean survival time, dose: 24.0 mg/kg/injection, schedule: Q01DX009 (ip), vehicle: Klucel (hydroxypropylcellulose) (HPC) 101 % of control | endpoint: mean survival time, dose: 48.0 mg/kg/injection, schedule: Q01DX009 (ip), vehicle: Klucel (hydroxypropylcellulose) (HPC) 102 % of control

OCCOCCOCCN1CCN(C(c2ccccc2)c2ccc(Cl)cc2)CC1 (centres undefined)
inactive: endpoint: mean survival time, dose: 12.5 mg/kg/injection, schedule: Q01DX009 (ip), vehicle: saline 95 % of control | [1] 100 % of control | [2] 101 % of control | [3] 95 % of control | endpoint: mean survival time, dose: 200.0 mg/kg/injection, schedule: Q01DX009 (ip), vehicle: saline 91 % of control

Clc1ccc2c(c1)Nc1ccccc1S2
inactive: [4] 88 % of control | [5] 94 % of control | [6] 95 % of control | [7] 98 % of control | [8] 96 % of control | [9] 100 % of control

CC(C)(CO)CO
inactive: [1] 97 % of control | endpoint: mean survival time, dose: 25.0 mg/kg/injection, schedule: Q04DX002 (ip), vehicle: saline 113 % of control | [2] 108 % of control | endpoint: mean survival time, dose: 50.0 mg/kg/injection, schedule: Q04DX002 (ip), vehicle: saline 102 % of control | [3] 105 % of control | endpoint: mean survival time, dose: 100.0 mg/kg/injection, schedule: Q04DX002 (ip), vehicle: saline 102 % of control and 103 % of control

Oc1ccc(CCCc2ccc3c(c2)OCO3)cc1
inactive: [10] 104 % of control | [11] 104 % of control

COC(=O)c1nn2c(=O)c3cccc4cccc(c43)c2c1C(=O)OC
inactive: [4] 95 % of control | [6] 98 % of control | [8] 100 % of control

N#C/C(=C\C=C\C1CCCCC1)C1CCC([N+](=O)[O-])CC1 (centres undefined)
inactive: [10] 105 % of control | [11] 94 % of control | endpoint: mean survival time, dose: 400.0 mg/kg/injection, schedule: Q04DX002 (ip), vehicle: saline with Tween-80 91 % of control

O=[N+]([O-])c1ccc(OS(=O)(=O)CS(=O)(=O)Oc2ccc([N+](=O)[O-])cc2)cc1
inactive: endpoint: mean survival time, dose: 100.0 mg/kg/injection, schedule: Q01DX001 (ip), vehicle: saline 109 % of control | endpoint: mean survival time, dose: 200.0 mg/kg/injection, schedule: Q01DX001 (ip), vehicle: saline 114 % of control

C=CCCC(=O)OC(C)(C)C
inactive: endpoint: mean survival time, dose: 25.0 mg/kg/injection, schedule: Q01DX009 (ip), vehicle: water 96 % of control | endpoint: mean survival time, dose: 50.0 mg/kg/injection, schedule: Q01DX009 (ip), vehicle: water 96 % of control | endpoint: mean survival time, dose: 100.0 mg/kg/injection, schedule: Q01DX009 (ip), vehicle: water 98 % of control | endpoint: mean survival time, dose: 200.0 mg/kg/injection, schedule: Q01DX009 (ip), vehicle: water 97 % of control

CO[C@H]1/C=C/O[C@@]2(C)Oc3c(C)c(O)c4c(O)c(c(/C=N/N5C(C)CN(Cc6ccccc6)CC5C)c(O)c4c3C2=O)NC(=O)/C(C)=C\C=C\[C@H](C)[C@H](O)[C@@H](C)[C@@H](O)[C@@H](C)[C@H](OC(C)=O)[C@@H]1C (some centres undefined)
inactive: endpoint: mean survival time, dose: 12.5 mg/kg/injection, schedule: Q02DX Z (oral), vehicle: Klucel (hydroxypropylcellulose) (HPC) 100 % of control | endpoint: mean survival time, dose: 25.0 mg/kg/injection, schedule: Q02DX Z (oral), vehicle: Klucel (hydroxypropylcellulose) (HPC) 95 % of control and 98 % of control | endpoint: mean survival time, dose: 50.0 mg/kg/injection, schedule: Q01DX009 (ip), vehicle: Klucel (hydroxypropylcellulose) (HPC) 97 % of control | endpoint: mean survival time, dose: 50.0 mg/kg/injection, schedule: Q02DX Z (oral), vehicle: Klucel (hydroxypropylcellulose) (HPC) 93 % of control and 96 % of control | [4] 101 % of control | endpoint: mean survival time, dose: 100.0 mg/kg/injection, schedule: Q02DX Z (oral), vehicle: Klucel (hydroxypropylcellulose) (HPC) 100 % of control and 106 % of control | [5] 97 % of control | [6] 100 % of control | endpoint: mean survival time, dose: 200.0 mg/kg/injection, schedule: Q02DX Z (oral), vehicle: Klucel (hydroxypropylcellulose) (HPC) 96 % of control and 98 % of control | [7] 95 % of control | endpoint: mean survival time, dose: 400.0 mg/kg/injection, schedule: Q02DX Z (oral), vehicle: Klucel (hydroxypropylcellulose) (HPC) 107 % of control and 91 % of control | [9] 103 % of control | endpoint: mean survival time, dose: 800.0 mg/kg/injection, schedule: Q02DX Z (oral), vehicle: Klucel (hydroxypropylcellulose) (HPC) 101 % of control and 104 % of control | endpoint: mean survival time, dose: 1600.0 mg/kg/injection, schedule: Q02DX Z (oral), vehicle: Klucel (hydroxypropylcellulose) (HPC) 95 % of control and 89 % of control | endpoint: median survival time, dose: 6.25 mg/kg/injection, schedule: Q01DX005 (ip), vehicle: other 106 % of control | endpoint: median survival time, dose: 12.5 mg/kg/injection, schedule: Q01DX005 (ip), vehicle: Klucel (hydroxypropylcellulose) (HPC) 110 % of control | endpoint: median survival time, dose: 12.5 mg/kg/injection, schedule: Q01DX005 (ip), vehicle: other 107 % of control | endpoint: median survival time, dose: 12.5 mg/kg/injection, schedule: Q01DX005 (oral), vehicle: other 117 % of control | endpoint: median survival time, dose: 25.0 mg/kg/injection, schedule: Q01DX005 (ip), vehicle: Klucel (hydroxypropylcellulose) (HPC) 101 % of control | endpoint: median survival time, dose: 25.0 mg/kg/injection, schedule: Q01DX005 (ip), vehicle: other 111 % of control | endpoint: median survival time, dose: 25.0 mg/kg/injection, schedule: Q01DX005 (oral), vehicle: Klucel (hydroxypropylcellulose) (HPC) 117 % of control | endpoint: median survival time, dose: 25.0 mg/kg/injection, schedule: Q01DX005 (oral), vehicle: other 114 % of control and 119 % of control | endpoint: median survival time, dose: 25.0 mg/kg/injection, schedule: Q02DX005 (oral), vehicle: other 104 % of control | endpoint: median survival time, dose: 50.0 mg/kg/injection, schedule: Q01DX005 (ip), vehicle: Klucel (hydroxypropylcellulose) (HPC) 97 % of control | endpoint: median survival time, dose: 50.0 mg/kg/injection, schedule: Q01DX005 (ip), vehicle: other 117 % of control | endpoint: median survival time, dose: 50.0 mg/kg/injection, schedule: Q01DX005 (oral), vehicle: Klucel (hydroxypropylcellulose) (HPC) 114 % of control | endpoint: median survival time, dose: 50.0 mg/kg/injection, schedule: Q01DX005 (oral), vehicle: other 93 % of control and 111 % of control | endpoint: median survival time, dose: 50.0 mg/kg/injection, schedule: Q02DX005 (oral), vehicle: other 104 % of control | endpoint: median survival time, dose: 100.0 mg/kg/injection, schedule: Q01DX005 (ip), vehicle: Klucel (hydroxypropylcellulose) (HPC) 106 % of control | endpoint: median survival time, dose: 100.0 mg/kg/injection, schedule: Q01DX005 (ip), vehicle: other 103 % of control | endpoint: median survival time, dose: 100.0 mg/kg/injection, schedule: Q01DX005 (oral), vehicle: Klucel (hydroxypropylcellulose) (HPC) 114 % of control | endpoint: median survival time, dose: 100.0 mg/kg/injection, schedule: Q01DX005 (oral), vehicle: other 93 % of control and 107 % of control | endpoint: median survival time, dose: 100.0 mg/kg/injection, schedule: Q02DX005 (oral), vehicle: other 104 % of control | endpoint: median survival time, dose: 200.0 mg/kg/injection, schedule: Q01DX005 (ip), vehicle: Klucel (hydroxypropylcellulose) (HPC) 92 % of control | endpoint: median survival time, dose: 200.0 mg/kg/injection, schedule: Q01DX005 (oral), vehicle: Klucel (hydroxypropylcellulose) (HPC) 94 % of control and 117 % of control | endpoint: median survival time, dose: 200.0 mg/kg/injection, schedule: Q01DX005 (oral), vehicle: other 98 % of control and 111 % of control | endpoint: median survival time, dose: 200.0 mg/kg/injection, schedule: Q02DX005 (oral), vehicle: Klucel (hydroxypropylcellulose) (HPC) 100 % of control | endpoint: median survival time, dose: 200.0 mg/kg/injection, schedule: Q02DX005 (oral), vehicle: other 119 % of control | endpoint: median survival time, dose: 400.0 mg/kg/injection, schedule: Q01DX005 (ip), vehicle: Klucel (hydroxypropylcellulose) (HPC) 102 % of control | endpoint: median survival time, dose: 400.0 mg/kg/injection, schedule: Q01DX005 (oral), vehicle: Klucel (hydroxypropylcellulose) (HPC) 104 % of control and 114 % of control | endpoint: median survival time, dose: 400.0 mg/kg/injection, schedule: Q02DX005 (oral), vehicle: Klucel (hydroxypropylcellulose) (HPC) 101 % of control | endpoint: median survival time, dose: 800.0 mg/kg/injection, schedule: Q01DX005 (ip), vehicle: Klucel (hydroxypropylcellulose) (HPC) 104 % of control | endpoint: median survival time, dose: 800.0 mg/kg/injection, schedule: Q01DX005 (oral), vehicle: Klucel (hydroxypropylcellulose) (HPC) 101 % of control | endpoint: median survival time, dose: 800.0 mg/kg/injection, schedule: Q02DX005 (oral), vehicle: Klucel (hydroxypropylcellulose) (HPC) 104 % of control | endpoint: median survival time, dose: 1600.0 mg/kg/injection, schedule: Q01DX005 (oral), vehicle: Klucel (hydroxypropylcellulose) (HPC) 104 % of control and 114 % of control | endpoint: median survival time, dose: 1600.0 mg/kg/injection, schedule: Q02DX005 (oral), vehicle: Klucel (hydroxypropylcellulose) (HPC) 119 % of control

N#CCCN1CCN(CCC#N)CC1
inactive: endpoint: mean survival time, dose: 100.0 mg/kg/injection, schedule: Q04DX003 (ip), vehicle: saline 96 % of control | endpoint: mean survival time, dose: 200.0 mg/kg/injection, schedule: Q04DX003 (ip), vehicle: saline 103 % of control | endpoint: mean survival time, dose: 400.0 mg/kg/injection, schedule: Q04DX003 (ip), vehicle: saline 100 % of control
